Source: US10597388B2, “Pyridazinone herbicides” (FMC CORPORATION, priority 2014, dated 2020)

Assays:
Experiment in all cases: Test C greenhouse herbicide test, pre- and postemergence
Type in all cases: in vivo
[1] = test system: foxtail, giant (giant foxtail, Setaria faberii)
Summary of the method: (§1)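 Visual ratings on a 0 to 100 scale (0 = no effect, 100 = complete control) versus untreated controls, scored 13–15 d after treatment. Soil-applied preemergence to seeded loam/sand; foliar postemergence to 1- to 4-leaf plants (2–18 cm) in peat-vermiculite mix; compounds formulated in solvent plus surfactant.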

[2] = test system: oilseed rape (Brassica napus)
Summary of the method: as §1

[3] = test system: lambsquarters (Chenopodium album)
Summary of the method: as §1

[4] = test system: ragweed (common ragweed, Ambrosia elatior)
Summary of the method: as §1

[5] = test system: nutsedge, yellow (yellow nutsedge, Cyperus esculentus)
Summary of the method: as §1

[6] = test system: waterhemp (common waterhemp, Amaranthus rudis)
Summary of the method: as §1

[7] = test system: barnyardgrass (Echinochloa crus-galli)
Summary of the method: as §1

soybean (Glycine max) = test system: soybean (Glycine max)
Summary of the method: as §1

[8] = test system: pigweed (Amaranthus retroflexus)
Summary of the method: as §1

[9] = test system: johnsongrass (Sorghum halepense)
Summary of the method: as §1

[10] = test system: morningglory (Ipomoea coccinea)
Summary of the method: as §1

[11] = test system: galium (catchweed bedstraw, Galium aparine)
Summary of the method: as §1

[12] = test system: velvetleaf (Abutilon theophrasti)
Summary of the method: as §1

[13] = test system: blackgrass (Alopecurus myosuroides)
Summary of the method: as §1

[14] = test system: wheat (winter wheat, Triticum aestivum)
Summary of the method: as §1

[15] = test system: crabgrass, large (large crabgrass, Digitaria sanguinalis)
Summary of the method: as §1

[16] = Postemergence, 31 g ai/ha, scale 0 to 100 (0 no effect, 100 complete control)
[17] = Postemergence, 62 g ai/ha, 0 to 100 scale (0 no effect, 100 complete control)
[18] = Postemergence, 250 g ai/ha, scale 0 to 100, 0 is no effect, 100 is complete control
[19] = postemergence, 125 g ai/ha, scale 0 to 100, 0 no effect, 100 complete control

Cc1ccc2ccccc2c1-c1c(OC(=O)N2CCOCC2)c(Br)nn(C)c1=O [Compound 176]
Plant response rating, Foxtail, Giant [1, 16]: 5
Foxtail, Giant plant response rating [1, 17]: 15
Plant response rating, Foxtail, Giant [1, 18]: 40
Foxtail, Giant plant response rating [1, 19]: 35
Plant response rating, Oilseed Rape [2, 16]: 95
Oilseed Rape plant response rating [2, 17]: 95
Plant response rating, Oilseed Rape [2, 18]: 95
Oilseed Rape plant response rating [2, 19]: 95
Plant response rating, Lambsquarters [3, 16]: 60
Lambsquarters plant response rating [3, 17]: 80
Plant response rating, Lambsquarters [3, 18]: 90
Lambsquarters plant response rating [3, 19]: 80
Plant response rating, Ragweed [4, 16]: 0
Ragweed plant response rating [4, 17]: 0
Plant response rating, Ragweed [4, 18]: 0
Ragweed plant response rating [4, 19]: 0
Plant response rating, Nutsedge, Yellow [5, 16]: 5
Nutsedge, Yellow plant response rating [5, 17]: 5
Plant response rating, Nutsedge, Yellow [5, 18]: 5
Nutsedge, Yellow plant response rating [5, 19]: 5
Plant response rating, Waterhemp [6, 16]: 20
Waterhemp plant response rating [6, 17]: 40
Plant response rating, Waterhemp [6, 18]: 55
Waterhemp plant response rating [6, 19]: 60
Plant response rating, Barnyardgrass [7, 16]: 5
Barnyardgrass plant response rating [7, 17]: 5
Plant response rating, Barnyardgrass [7, 18]: 20
Barnyardgrass plant response rating [7, 19]: 10
Plant response rating, Soybean (soybean (Glycine max); [16]): 5
Soybean plant response rating (soybean (Glycine max); [17]): 10
Plant response rating, Soybean (soybean (Glycine max); [18]): 10
Soybean plant response rating (soybean (Glycine max); [19]): 15
Plant response rating, Pigweed [8, 16]: 20
Pigweed plant response rating [8, 17]: 30
Plant response rating, Pigweed [8, 18]: 75
Pigweed plant response rating [8, 19]: 50
Plant response rating, Johnsongrass [9, 16]: 5
Johnsongrass plant response rating [9, 17]: 5
Plant response rating, Johnsongrass [9, 18]: 10
Johnsongrass plant response rating [9, 19]: 5
Plant response rating, Morningglory [10, 16]: 85
Morningglory plant response rating [10, 17]: 85
Plant response rating, Morningglory [10, 18]: 100
Morningglory plant response rating [10, 19]: 98
Plant response rating, Galium [11, 16]: 0
Galium plant response rating [11, 17]: 5
Plant response rating, Galium [11, 18]: 60
Galium plant response rating [11, 19]: 60
Plant response rating, Velvetleaf [12, 16]: 0
Velvetleaf plant response rating [12, 17]: 25
Plant response rating, Velvetleaf [12, 18]: 80
Velvetleaf plant response rating [12, 19]: 75
Plant response rating, Blackgrass [13, 16]: 0
Blackgrass plant response rating [13, 17]: 0
Plant response rating, Blackgrass [13, 18]: 0
Blackgrass plant response rating [13, 19]: 0
Plant response rating, Wheat [14, 16]: 0
Wheat plant response rating [14, 17]: 5
Plant response rating, Wheat [14, 18]: 40
Wheat plant response rating [14, 19]: 10
Plant response rating, Crabgrass, Large [15, 16]: 10
Crabgrass, Large plant response rating [15, 17]: 5
Plant response rating, Crabgrass, Large [15, 18]: 30
Crabgrass, Large plant response rating [15, 19]: 20
